Test results: patent publication US7521444B2, “Compounds for the treatment of hepatitis C” (Bristol-Myers Squibb Company, priority 2007, dated 2009)
pEC50, pIC50: −log10 of the molar value.

Columns and labels:
HCV replicon cells = experiment: HCV replicon FRET / luciferase assay; type: cell-based; conditions: Hepatitis C virus, 50% reduction in FRET or luciferase activity
Description: FRET Assay Preparation. The HCV FRET screening assay was performed in 96-well cell culture plates. The FRET peptide (Anaspec, Inc.) (Taliani et al., Anal. Biochem. 1996, 240, 60-67) contains a fluorescence donor, EDANS, near one end of the peptide and an acceptor, DABCYL, near the other end. The fluorescence of the peptide is quenched by […] resonance energy transfer (RET) between the donor and the acceptor, but as the NS3 protease cleaves the peptide the products are released from RET quenching and the fluorescence of the donor becomes apparent. The assay reagent was made as follows: 5× cell Luciferase cell culture lysis reagent from Promega (#E153A) diluted to 1× with dH2O, NaCl added to 150 mM final, the FRET peptide diluted to 20 μM final from a 2 mM stock.
To prepare plates, HCV replicon cells, with or without a Renilla luciferase reporter gene, were trypsinized and plated in a 96-well plate with titrated test compounds added in columns 3 through 12; columns 1 and 2 contained a control compound (HCV control inhibitor), and the bottom row contained cells with DMSO only. The plates were then placed in a CO2 incubator at 37° C.
Assays. Subsequent to addition of the test compounds described above (FRET Assay Preparation), at various times the plate was removed and Alamar blue solution (Trek Diagnostics, #00-100) was added to measure cellular toxicity. After reading in a Cytoflour 4000 instrument (PE Biosystems), plates were rinsed with PBS and then used for FRET assay by the addition of 30 ul of the FRET peptide assay reagent described above (FRET Assay Preparation) per well. The plate was then placed into the Cytoflour 4000 instrument which had been set to 340 excite/490 emission, automatic mode for up to 20 cycles and the plate read in a kinetic mode. Typically, the signal to noise using an endpoint analysis after the reads was at least three-fold. Alternatively, after Alamar blue reading, plates were rinsed with PBS, then used for luciferase assay using the Promega Dual-Glo Luciferase Assay System or the Promega EnduRen Live Cell Substrate assay.
Compound analysis was performed by quantification of the relative HCV replicon inhibition and the relative cytotoxicity values. To calculate cytoxicity values, the average Alamar Blue fluorescence signals from the control wells were set as 100% non-toxic. The individual signals in each of the compound test wells were then divided by the average control signal and multiplied by 100% to determine […]. To calculate the HCV replicon inhibition values, an average background value was obtained from the two wells containing the highest amount of HCV control inhibitor at the end of the assay period. These numbers were similar to those obtained from naïve Huh-7 cells. The background numbers were then subtracted from the average signal obtained from the control wells and this number was used as 100% activity. The individual signals in each of the compound test wells were then divided by the averaged control values after background subtraction and multiplied by 100% to determine percent activity. EC50 values were calculated as the concentration which caused a 50% reduction in FRET or luciferase activity. The two numbers generated for the compound plate, percent cytoxicity and percent activity, were used to determine compounds of interest for further analysis.

HCV NS5B = target: T1, HCV NS5B (Hepatitis C virus genotype 1b, UniProt Q9WMX2); experiment: HCV NS5B RdRp enzyme assay (standard or modified); type: biochemical; conditions: HCV NS5B RdRp genotype 1b enzyme; standard or modified assay not stated
T1 construct: The protein was expressed with an 18 amino acid C-terminal truncation to enhance the solubility; made in house; host or cells: E. coli BL21(DE3), pET21a
Description: HCV NS5B RdRp cloning, expression, and purification. The cDNA encoding the NS5B protein of HCV, genotype 1b, was cloned into the pET21a expression vector. The protein was expressed with an 18 amino acid C-terminal truncation to enhance the solubility. The E. coli competent cell line BL21(DE3) was used for expression of the protein. Cultures were grown at 37° C. for ˜4 hours until the cultures reached an optical density of 2.0 at 600 nm. The cultures were cooled to 20° C. and induced with 1 mM IPTG. Fresh ampicillin was added to a final concentration of 50 μg/ml and the cells were grown overnight at 20° C.
Cell pellets (3 L) were lysed for purification to yield 15-24 mgs of purified NS5B. The lysis buffer consisted of 20 mM Tris-HCl, pH 7.4, 500 mM NaCl, 0.5% triton X-100, 1 mM DTT, 1 mM EDTA, 20% glycerol, 0.5 mg/ml lysozyme, 10 mM MgCl2, 15 ug/ml deoxyribonuclease I, and Complete TM protease inhibitor tablets (Roche). After addition of the lysis buffer, frozen cell pellets were resuspended using a tissue homogenizer. To reduce the viscosity of the sample, aliquots of the lysate were sonicated on ice using a microtip attached to a Branson sonicator. The sonicated lysate was centrifuged at 100,000×g for 1 hr at 4° C. and filtered through a 0.2 μm filter unit (Corning).
The protein was purified using two sequential chromatography steps: Heparin sepharose CL-6B and polyU sepharose 4B (Pharmacia). The chromatography buffers were identical to the lysis buffer but contained no lysozyme, deoxyribonuclease I, MgCl2 or protease inhibitor and the NaCl concentration of the buffer was adjusted according to the requirements for charging the protein onto the column. Each column was eluted with a NaCl gradient which varied in length from 5-50 column volumes depending on the column type. After the final chromatography step, the resulting purity of the enzyme is >90% based on SDS-PAGE analysis. The enzyme was aliquoted and stored at −80° C.
Standard HCV NS5B RdRp enzyme assay. HCV RdRp genotype 1b assays were run in a final volume of 60 μl in 96 well plates (Corning 3600). The assay buffer is composed of 20 mM Hepes, pH 7.5, 2.5 mM KCl, 2.5 mM MgCl2, 1 mM DTT, 1.6 U RNAse inhibitor (Promega N2515), 0.01 mg/ml BSA (Sigma B6917), and 2% glycerol. All compounds were serially diluted (3-fold) in DMSO and diluted further in water such that the final concentration of DMSO in the assay was 2%. HCV RdRp genotype 1b enzyme was used at a final concentration of 28 nM. A polyA template was used at 6 nM, and a biotinylated oligo-dT12 primer was used at 180 nM final concentration. Template was obtained commercially (Amersham 27-4110). Biotinylated primer was prepared by Sigma Genosys. 3H-UTP was used at 0.6 μCi (0.29 μM total UTP). Reactions were initiated by the addition of enzyme, incubated at 30° C. for 60 min, and stopped by adding 25 μl of 50 mM EDTA containing SPA beads (4 μg/μl, Amersham RPNQ 0007). Plates were read on a Packard Top Count NXT after >1 hr incubation at room temperature.
Modified HCV NS5B RdRp enzyme assay. A modified enzyme assay was performed essentially as described for the standard enzyme assay except for the following: The biotinylated oligo dT12 primer was precaptured on streptavidin-coated SPA beads by mixing primer and beads in assay buffer and incubating at room temperature for one hour. Unbound primer was removed after centrifugation. The primer-bound beads were resuspended in 20 mM Hepes buffer, pH 7.5 and used in the assay at final concentrations of 20 nM primer and 0.67 μg/μl beads. Order of addition in the assay: enzyme (1.75 nM) was added to diluted compound followed by the addition of a mixture of template (0.36 nM), 3H-UTP (0.6 μCi, 0.29 μM), and primer-bound beads, to initiate the reaction; concentrations given are final. Reactions were allowed to proceed for 4 hours at 30° C.
IC50 values for compounds were determined using seven different [I]. […]

T1 sequence (Q9WMX2 2420-2992): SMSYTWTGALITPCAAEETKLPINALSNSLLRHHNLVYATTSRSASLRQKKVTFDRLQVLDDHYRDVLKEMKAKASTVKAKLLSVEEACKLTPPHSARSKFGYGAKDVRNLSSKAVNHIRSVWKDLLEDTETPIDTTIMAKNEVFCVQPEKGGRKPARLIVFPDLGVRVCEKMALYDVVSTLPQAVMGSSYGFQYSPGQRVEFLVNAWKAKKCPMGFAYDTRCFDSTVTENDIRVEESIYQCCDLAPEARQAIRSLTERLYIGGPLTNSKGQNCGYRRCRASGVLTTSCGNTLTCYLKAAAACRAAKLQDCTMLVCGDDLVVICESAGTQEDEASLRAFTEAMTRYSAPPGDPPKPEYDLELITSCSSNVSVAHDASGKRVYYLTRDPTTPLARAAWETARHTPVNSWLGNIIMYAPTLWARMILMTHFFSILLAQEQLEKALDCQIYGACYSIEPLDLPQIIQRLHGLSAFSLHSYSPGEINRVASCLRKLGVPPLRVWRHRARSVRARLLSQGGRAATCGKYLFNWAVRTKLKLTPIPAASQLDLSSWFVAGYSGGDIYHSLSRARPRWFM

Row | SMILES | pEC50 (HCV replicon cells) | pIC50 (HCV NS5B)
1 | COc1ccc2c(c1)C1CC1(C(=O)N1CCN3CCCC3C1)Cn1c-2c(C2CCCCC2)c2ccc(C(=O)NS(=O)(=O)N(C)C)cc21 (centres unmarked) | 6.30 to 8.34 | 6.30 to 8.34
2 | COc1ccc2c(c1)C1CC1(C(=O)N1C[C@H]3CN(Cc4ccccc4)C[C@H]3C1)Cn1c-2c(C2CCCCC2)c2ccc(C(=O)NS(=O)(=O)N(C)C)cc21 (some centres unmarked) | 6.30 to 8.34 | 6.30 to 8.34
3 | COc1ccc2c(c1)C1CC1(C(=O)N1CCCC3CN(Cc4ccccc4)CC31)Cn1c-2c(C2CCCCC2)c2ccc(C(=O)NS(=O)(=O)N(C)C)cc21 (centres unmarked) | 6.30 to 8.34 | 6.30 to 8.34
4 | COc1ccc2c(c1)C1CC1(C(=O)N1C[C@@H]3CCCN3C[C@@H]1CC(C)C)Cn1c-2c(C2CCCCC2)c2ccc(C(=O)NS(=O)(=O)N(C)C)cc21 (some centres unmarked) | 6.30 to 8.34 | 6.30 to 8.34
5 | COc1ccc2c(c1)C1CC1(C(=O)N1C[C@@H]3CCCN3C[C@@H]1Cc1ccccc1)Cn1c-2c(C2CCCCC2)c2ccc(C(=O)NS(=O)(=O)N(C)C)cc21 (some centres unmarked) | 6.30 to 8.34 | 6.30 to 8.34
6 | COc1ccc2c(c1)C1CC1(C(=O)N1CCN3CCCC3C1C)Cn1c-2c(C2CCCCC2)c2ccc(C(=O)NS(=O)(=O)N(C)C)cc21 (centres unmarked) | 6.30 to 8.34 | 6.30 to 8.34
7 | COc1ccc2c(c1)C1CC1(C(=O)N1CCN3CCCC3C1)Cn1c-2c(C2CCCCC2)c2ccc(C(=O)NS(=O)(=O)C3CC3)cc21 (centres unmarked) | 6.30 to 8.34 | 6.30 to 8.34
8 | COc1ccc2c(c1)C1CC1(C(=O)N1CCC[C@H]3CNC[C@H]31)Cn1c-2c(C2CCCCC2)c2ccc(C(=O)NS(=O)(=O)N(C)C)cc21 (some centres unmarked) | 6.30 to 8.34 | 6.30 to 8.34
9 | COc1ccc2c(c1)C1CC1(C(=O)N1C[C@H]3CNC[C@H]3C1)Cn1c-2c(C2CCCCC2)c2ccc(C(=O)NS(=O)(=O)N(C)C)cc21 (some centres unmarked) | 6.30 to 8.34 | 6.30 to 8.34
10 | COc1ccc2c(c1)C1CC1(C(=O)N1CC3CCCNC3C1)Cn1c-2c(C2CCCCC2)c2ccc(C(=O)NS(=O)(=O)N(C)C)cc21 (centres unmarked) | 6.30 to 8.34 | 6.30 to 8.34
11 | CCS(=O)(=O)NC(=O)c1ccc2c(C3CCCCC3)c3n(c2c1)CC1(C(=O)N2CCN4CCCC4C2)CC1c1cc(OC)ccc1-3 (centres unmarked) | 6.30 to 8.34 | 6.30 to 8.34
12 | CNC(=O)N1CCCC2CN(C(=O)C34CC3c3cc(OC)ccc3-c3c(C5CCCCC5)c5ccc(C(=O)NS(=O)(=O)N(C)C)cc5n3C4)CC21 (centres unmarked) | 6.30 to 8.34 | 6.30 to 8.34
13 | COc1ccc2c(c1)C1CC1(C(=O)N1CC3CCCN(C)C3C1)Cn1c-2c(C2CCCCC2)c2ccc(C(=O)NS(=O)(=O)N(C)C)cc21 (centres unmarked) | 6.30 to 8.34 | 6.30 to 8.34
14 | COc1ccc2c(c1)C1CC1(C(=O)N1CC3CN(Cc4ccccc4)CC3C1)Cn1c-2c(C2CCCCC2)c2ccc(C(=O)NS(N)(=O)=O)cc21 (centres unmarked) | 6.30 to 8.34 | 6.30 to 8.34
15 | COc1ccc2c(c1)C1CC1(C(=O)N1CC3CNCC3C1)Cn1c-2c(C2CCCCC2)c2ccc(C(=O)NS(N)(=O)=O)cc21 (centres unmarked) | < 6.30 | 6.30 to 8.34
16 | COc1ccc2c(c1)C1CC1(C(=O)N1CC3CN(C)CC3C1)Cn1c-2c(C2CCCCC2)c2ccc(C(=O)NS(=O)(=O)N(C)C)cc21 (centres unmarked) | 6.30 to 8.34 | 6.30 to 8.34
17 | COc1ccc2c(c1)C1CC1(C(=O)N1CC3CN(C(=O)N4CCCC4)CC3C1)Cn1c-2c(C2CCCCC2)c2ccc(C(=O)NS(=O)(=O)N(C)C)cc21 (centres unmarked) | 6.30 to 8.34 | 6.30 to 8.34
18 | COc1ccc2c(c1)C1CC1(C(=O)N1CCC[C@H]3CN(C)C[C@H]31)Cn1c-2c(C2CCCCC2)c2ccc(C(=O)NS(=O)(=O)N(C)C)cc21 (some centres unmarked) | 6.30 to 8.34 | 6.30 to 8.34
19 | COc1ccc2c(c1)C1CC1(C(=O)N1CCN3CCCC3C1)Cn1c-2c(C2CCCCC2)c2ccc(C(=O)NS(N)(=O)=O)cc21 (centres unmarked) | 6.30 to 8.34 | 6.30 to 8.34
20 | COc1ccc2c(c1)C1CC1(C(=O)N1CCN3CCCC3C1)Cn1c-2c(C2CCCCC2)c2ccc(C(=O)NS(=O)(=O)C(C)C)cc21 (centres unmarked) | 6.30 to 8.34 | 6.30 to 8.34
21 | COc1ccc2c(c1)C1CC1(C(=O)N1CCC[C@H]3CN(Cc4ccccc4)C[C@H]31)Cn1c-2c(C2CCCCC2)c2ccc(C(=O)NS(=O)(=O)C3CC3)cc21 (some centres unmarked) | 6.30 to 8.34 | 6.30 to 8.34
22 | COc1ccc2c(c1)C1CC1(C(=O)N1CCC[C@H]3CN(Cc4ccccc4)C[C@H]31)Cn1c-2c(C2CCCCC2)c2ccc(C(=O)NS(N)(=O)=O)cc21 (some centres unmarked) | 6.30 to 8.34 | 6.30 to 8.34
23 | COc1ccc2c(c1)C1CC1(C(=O)N1CC3CN(C(=O)C4CC4)CC3C1)Cn1c-2c(C2CCCCC2)c2ccc(C(=O)NS(N)(=O)=O)cc21 (centres unmarked) |  | 6.30 to 8.34
24 | COc1ccc2c(c1)C1CC1(C(=O)N1CC3CN(C(=O)N(C)C)CC3C1)Cn1c-2c(C2CCCCC2)c2ccc(C(=O)NS(N)(=O)=O)cc21 (centres unmarked) |  | 6.30 to 8.34
25 | COc1ccc2c(c1)C1CC1(C(=O)N1CC3CN(C(=O)OC(C)(C)C)CC3C1)Cn1c-2c(C2CCCCC2)c2ccc(C(=O)NS(=O)(=O)C3CC3)cc21 (centres unmarked) |  | 6.30 to 8.34
26 | COc1ccc2c(c1)C1CC1(C(=O)N1CCN3CCCCC3C1)Cn1c-2c(C2CCCCC2)c2ccc(C(=O)NS(=O)(=O)N(C)C)cc21 (centres unmarked) | 6.30 to 8.34 | 6.30 to 8.34
27 | COc1ccc2c(c1)C1CC1(C(=O)N1CCN3CCCCC3C1)Cn1c-2c(C2CCCCC2)c2ccc(C(=O)NS(C)(=O)=O)cc21 (centres unmarked) | 6.30 to 8.34 | 6.30 to 8.34
28 | COc1ccc2c(c1)C1CC1(C(=O)N1CCC[C@H]3CN(C(C)=O)C[C@H]31)Cn1c-2c(C2CCCCC2)c2ccc(C(=O)NS(=O)(=O)N(C)C)cc21 (some centres unmarked) | 6.30 to 8.34 | 6.30 to 8.34
